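Following 48 hours of exposure in 96-well plates, responses at five concentrations were used to interpolate endpoints linearly. At the GI50, growth is halved. TGI marks complete inhibition of growth.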
Legend:
Experiment in all cases: inhibition of tumour cell growth, NCI panel, 48 h
[1] = test system: A549 NSCLC
[2] = test system: 786-0 renal
[3] = test system: MDA-MB-435
[4] = test system: KM12 colon
[5] = test system: UACC-62 melanoma
[6] = test system: MDA-MB-231 breast
[7] = test system: COLO 205 colon
[8] = test system: MALME-3M melanoma
[9] = test system: SK-MEL-28 melanoma
[10] = test system: A498 renal
[11] = test system: MOLT-4 leukemia
[12] = test system: M14 melanoma
[13] = test system: ACHN renal
[14] = test system: SK-OV-3 ovarian
[15] = test system: SF-295 CNS
[16] = test system: CCRF-CEM leukemia
[17] = test system: SK-MEL-5 melanoma
[18] = test system: HT29 colon
[19] = test system: RPMI-8226 leukemia
[20] = test system: OVCAR-8 ovarian
[21] = test system: DU-145 prostate
[22] = test system: SN12C renal
[23] = test system: SW-620 colon
[24] = test system: TK-10 renal
[25] = test system: RXF 393 renal
[26] = test system: HL-60(TB) leukemia
[27] = test system: SR leukemia
[28] = test system: BT-549 breast
[29] = test system: U251 CNS

## Cc1cnc(NC2CCOCC2)nc1-n1cnc(C(=O)N[C@H](CN)c2cc(F)cc(Cl)c2)c1
[1]
  TGI: 30500 nM
[2]
  GI50: 1490 nM
  TGI: 20000 nM
[3]
  GI50: 63.8 nM
  TGI: 16400 nM
[4]
  GI50: 81.4 nM
  TGI: 30100 nM
[5]
  GI50: 10.2 nM
  TGI: 5570 nM
[6]
  GI50: 99.9 nM
  TGI: > 30600 nM
[7]
  GI50: < 10 nM
  TGI: 14200 nM
[8]
  GI50: < 10 nM
  TGI: 15.7 nM
[9]
  GI50: 20.3 nM
  TGI: 13500 nM
[10]
  GI50: 50.8 nM
  TGI: 462 nM
[11]
  GI50: 1590 nM
  TGI: 9790 nM
[12]
  GI50: 19.3 nM
  TGI: 2380 nM
[13]
  GI50: 1640 nM
  TGI: 28000 nM
[14]
  GI50: 523 nM
  TGI: 8170 nM
[15]
  GI50: 2800 nM
  TGI: 17300 nM
[16]
  GI50: 2400 nM
  TGI: 24500 nM
[17]
  GI50: 388 nM
  TGI: 12900 nM
[18]
  GI50: 12.8 nM
  TGI: > 35400 nM
[19]
  GI50: 7450 nM
  TGI: 30400 nM
[20]
  GI50: 3480 nM
  TGI: 42600 nM
[21]
  GI50: 2340 nM
  TGI: 82800 nM
[22]
  GI50: 2270 nM
  TGI: > 52100 nM
[23]
  GI50: 38.3 nM
  TGI: 14300 nM
[24]
  GI50: 113 nM
  TGI: 23000 nM
[25]
  GI50: 101 nM
  TGI: 2420 nM
[26]
  GI50: 19.6 nM
  TGI: 1830 nM
[27]
  GI50: 1140 nM
  TGI: 16500 nM
[28]
  GI50: 5020 nM
  TGI: 17200 nM
[29]
  GI50: 1540 nM
  TGI: 22900 nM
